The values that follow are results of earlier work, collected in patent publication US20220081482A1, “ANTICANCER COMPOSITIONS COMPRISING IMMUNE CHECKPOINT INHIBITORS” (priority 2018, published 2022).

The conditions of the series: orally administered to rats.

For the compound `CN(C)C(=N)N=C(N)N` [metformin], the LD50 is given as 1,450 mg/kg.
